Patent US10703764B2, “Benzopiperazine compositions as BET bromodomain inhibitors” (FORMA Therapeutics, Inc., priority 2013, dated 2020)
pIC50: −log10 of the molar value.

Experiments:
[1] = target: T1, BRD4 BD2 (Homo sapiens, UniProt O60885); experiment: AlphaScreen binding assay, BRD4 Bromodomain 2
T1 construct: made in house
Outline: (§1)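 Compound dilution series were mixed with His-tagged BRD4 bromodomain and biotinylated tetra-acetylated H4 (1-21) peptide at pH 7.3 (BD1 and peptide at 50 nM, BD2 and peptide at 100 nM). Donor and acceptor beads were then added, and plates were equilibrated at least 1 h before reading. IC50 values were fitted with a four-parameter logistic model.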

[2] = target: T2, BRD4 BD1 (Homo sapiens, UniProt O60885); experiment: AlphaScreen binding assay, BRD4 Bromodomain 1
T2 construct: made in house
Outline: as §1

SMILES | pIC50 [1] | pIC50 [2]
CC(=O)N1c2ccc(-c3ccc(S(C)(=O)=O)cc3)cc2N(C(=O)c2csc(-c3ccccc3)n2)C[C@@H]1C [Example I-885] | < 6.30 | < 5.00
CC(=O)N1c2ccc(-c3ccc(S(C)(=O)=O)cc3)cc2N(C(=O)c2ccc(S(C)(=O)=O)o2)C[C@@H]1C [Example I-888] | < 6.30 | < 5.00
CC(=O)Nc1cccc(C(=O)N2C[C@H](C)N(C(C)=O)c3ccc(-c4ccc(S(C)(=O)=O)cc4)cc32)c1 [Example I-889] | < 6.30 | < 5.00
CC(=O)N1c2ccccc2N(Cc2ccc(N(C)C)cc2)C[C@@H]1C [Example I-891] | < 6.30 | < 5.00
CC(=O)N1c2ccccc2N(Cc2ccc(C(C)C)cc2)C[C@@H]1C [Example I-892] | < 6.30 | < 5.00
CC(=O)N1c2ccccc2N(Cc2cccc(C)c2)C[C@@H]1C [Example I-893] | < 6.30 | < 5.00
CC(=O)N1c2ccccc2N(Cc2ccc(Cl)cc2Cl)C[C@@H]1C [Example I-894] | < 6.30 | < 5.00
CC(=O)N1c2ccccc2N(Cc2ccc(C)cc2)C[C@@H]1C [Example I-895] | < 6.30 | < 5.00
CC(=O)N1c2ccccc2N(Cc2ccccc2C)C[C@@H]1C [Example I-896] | < 6.30 | < 5.00
CC(=O)N1c2ccccc2N(Cc2ccc(F)cc2F)C[C@@H]1C [Example I-897] | < 6.30 | < 5.00
CC(=O)N1c2ccccc2N(Cc2ccc(Cl)c(F)c2)C[C@@H]1C [Example I-898] | < 6.30 | < 5.00
CC(=O)N1c2ccccc2N(Cc2cccc(C(F)(F)F)c2)C[C@@H]1C [Example I-899] | < 6.30 | < 5.00
CC(=O)N1c2ccccc2N(Cc2cc(C(F)(F)F)cc(C(F)(F)F)c2)C[C@@H]1C [Example I-900] | < 6.30 | < 5.00
CCc1ccc(CN2C[C@H](C)N(C(C)=O)c3ccccc32)cc1 [Example I-901] | < 6.30 | < 5.00
COc1cc(CN2C[C@H](C)N(C(C)=O)c3ccccc32)cc(OC)c1 [Example I-902] | < 6.30 | < 5.00
CC(=O)N1c2ccccc2N(Cc2cc(C)ccc2C)C[C@@H]1C [Example I-903] | < 6.30 | < 5.00
CC(=O)N1c2ccccc2N(Cc2ccc(O)c(C)c2)C[C@@H]1C [Example I-904] | < 6.30 | < 5.00
CC(=O)N1c2ccccc2N(Cc2cc(C)nn2C)C[C@@H]1C [Example I-905] | < 6.30 | < 5.00
CC(=O)N1c2ccccc2N(Cc2ccc(OCCN(C)C)cc2)C[C@@H]1C [Example I-907] | < 6.30 | < 5.00
CC(=O)N1c2ccccc2N(CC2CCCCC2)C[C@@H]1C [Example I-910] | < 6.30 | < 5.00
CC(=O)N1c2ccccc2N(Cc2ccc(C(F)(F)F)nc2)C[C@@H]1C [Example I-911] | < 6.30 | < 5.00
CC(=O)N1c2ccccc2N(Cc2ccncc2)C[C@@H]1C [Example I-912] | < 6.30 | < 5.00
CC(=O)N1c2ccccc2N(Cc2ccccn2)C[C@@H]1C [Example I-913] | < 6.30 | < 5.00
COc1cncc(CN2C[C@H](C)N(C(C)=O)c3ccccc32)c1 [Example I-914] | < 6.30 | < 5.00
CC(=O)N1c2ccccc2N(Cc2nccs2)C[C@@H]1C [Example I-915] | < 6.30 | < 5.00
CC(=O)N1c2ccccc2N(Cc2ccc(-c3ccccc3)cc2)C[C@@H]1C [Example I-916] | < 6.30 | < 5.00
CC(=O)N1c2ccccc2N(Cc2ccc(OC(C)C)cc2)C[C@@H]1C [Example I-917] | < 6.30 | < 5.00
CC(=O)N1c2ccccc2N(Cc2cccc(Oc3ccccc3)c2)C[C@@H]1C [Example I-918] | < 6.30 | < 5.00
CC(=O)N1c2ccccc2N(Cc2ccc(Oc3ccccc3)cc2)C[C@@H]1C [Example I-919] | < 6.30 | < 5.00

Other lines, results leading:

pIC50 [1] | pIC50 [2] | SMILES
6.30 to 7.30 | 5.00 to 6.00 | COc1ccc(-c2ccc3c(c2)N(C(=O)c2ccco2)C[C@H](C)N3C(C)=O)cn1 [Example I-833]
6.30 to 7.30 | 5.00 to 6.00 | COc1ncc(-c2ccc3c(c2)N(C(=O)c2ccco2)C[C@H](C)N3C(C)=O)cn1 [Example I-834]
6.30 to 7.30 | 5.00 to 6.00 | COc1cncc(-c2ccc3c(c2)N(C(=O)c2ccco2)C[C@H](C)N3C(C)=O)c1 [Example I-835]
> 7.30 | 5.00 to 6.00 | CNC(=O)c1ccc(-c2ccc3c(c2)N(C(=O)c2ccco2)C[C@H](C)N3C(C)=O)cn1 [Example I-836]
6.30 to 7.30 | 5.00 to 6.00 | CC(=O)N1c2ccc(-c3ccc(C(F)(F)F)nc3)cc2N(C(=O)c2ccco2)C[C@@H]1C [Example I-837]
< 6.30 | < 5.00 | CC(=O)N1c2ccc(-c3cc4ccccc4n3C)cc2N(C(=O)c2ccco2)C[C@@H]1C [Example I-839]
6.30 to 7.30 | 5.00 to 6.00 | CC(=O)N1c2ccc(-c3ccc4cn(C)nc4c3)cc2N(C(=O)c2ccco2)C[C@@H]1C [Example I-840]
< 6.30 | < 5.00 | CC(=O)N1c2ccc(-c3cccc4cnn(C)c34)cc2N(C(=O)c2ccco2)C[C@@H]1C [Example I-842]
6.30 to 7.30 | 5.00 to 6.00 | CC(=O)N1c2ccc(-c3cccc4[nH]ccc34)cc2N(C(=O)c2ccco2)CC1C (centres unmarked) [Example I-846]
6.30 to 7.30 | 5.00 to 6.00 | CC(=O)N1c2ccc(-c3cccc(S(C)(=O)=O)c3)cc2N(C(=O)c2ccco2)C[C@@H]1C [Example I-847]
< 6.30 | < 5.00 | CC(=O)N1c2ccc(-c3cc(C(F)(F)F)nn3C)cc2N(C(=O)c2ccco2)C[C@@H]1C [Example I-851]
> 7.30 | 6.00 to 7.00 | CC(=O)N1c2ccc(-c3cccc(-n4cccn4)c3)cc2N(C(=O)c2ccco2)C[C@@H]1C [Example I-853]
6.30 to 7.30 | 5.00 to 6.00 | CC(=O)N1c2ccc(-c3cccc(-c4nnc(C)o4)c3)cc2N(C(=O)c2ccco2)C[C@@H]1C [Example I-854]
> 7.30 | 5.00 to 6.00 | CC(=O)N1c2ccc(-c3cccc(-c4ccco4)c3)cc2N(C(=O)c2ccco2)C[C@@H]1C [Example I-855]
> 7.30 | 5.00 to 6.00 | CC(=O)N1c2ccc(-c3cccc(C(N)=O)c3)cc2N(C(=O)c2ccco2)C[C@@H]1C [Example I-856]
6.30 to 7.30 | 5.00 to 6.00 | CC(=O)N1c2ccc(-c3cccc4c3cnn4C)cc2N(C(=O)c2ccco2)C[C@@H]1C [Example I-858]
6.30 to 7.30 | 5.00 to 6.00 | CC(=O)N1c2ccc(-c3ccnc(C(F)(F)F)c3)cc2N(C(=O)c2ccco2)C[C@@H]1C [Example I-861]
6.30 to 7.30 | 5.00 to 6.00 | CC(=O)N1c2ccc(-c3ccc(S(=O)(=O)C(F)(F)F)cc3)cc2N(C(=O)c2ccco2)C[C@@H]1C [Example I-866]

pIC50 [1] | pIC50 [2] | SMILES
6.30 to 7.30 | 5.00 to 6.00 | CC(=O)N1c2ccc(-c3cc(F)cc(F)c3)cc2N(C(=O)c2ccco2)C[C@@H]1C [Example I-869]
6.30 to 7.30 | 6.00 to 7.00 | CC(=O)N1c2ccc(-c3cccc(N(C)C)c3)cc2N(C(=O)c2ccco2)C[C@@H]1C [Example I-870]
< 6.30 | 5.00 to 6.00 | CC(=O)N1c2ccc(-c3cccc4ccsc34)cc2N(C(=O)c2ccco2)C[C@@H]1C [Example I-873]
6.30 to 7.30 | 5.00 to 6.00 | COc1ccc(C(=O)N2C[C@H](C)N(C(C)=O)c3ccc(-c4ccc(S(C)(=O)=O)cc4)cc32)cc1 [Example I-877]
6.30 to 7.30 | < 5.00 | CC(=O)N1c2ccc(-c3ccc(S(C)(=O)=O)cc3)cc2N(C(=O)c2ccc(F)cc2)C[C@@H]1C [Example I-878]
< 6.30 | < 5.00 | CC(=O)N1c2ccc(-c3ccc(S(C)(=O)=O)cc3)cc2N(C(=O)c2ccc(OC(F)(F)F)cc2)C[C@@H]1C [Example I-879]
< 6.30 | < 5.00 | CC(=O)N1c2ccc(-c3ccc(S(C)(=O)=O)cc3)cc2N(C(=O)c2ccc(Oc3cc(Cl)cc(Cl)c3)o2)C[C@@H]1C [Example I-880]
< 6.30 | < 5.00 | CC(=O)N1c2ccc(-c3ccc(S(C)(=O)=O)cc3)cc2N(C(=O)c2cn(C)cn2)C[C@@H]1C [Example I-881]
6.30 to 7.30 | 5.00 to 6.00 | COc1ccc2[nH]c(C(=O)N3CC(C)N(C(C)=O)c4ccc(-c5ccc(S(C)(=O)=O)cc5)cc43)cc2c1 (centres unmarked) [Example I-882]
< 6.30 | < 5.00 | COc1cccc2[nH]c(C(=O)N3CC(C)N(C(C)=O)c4ccc(-c5ccc(S(C)(=O)=O)cc5)cc43)cc12 (centres unmarked) [Example I-883]
< 6.30 | < 5.00 | CC(=O)N1c2ccc(-c3ccc(S(C)(=O)=O)cc3)cc2N(C(=O)c2ncoc2C)C[C@@H]1C [Example I-884]
6.30 to 7.30 | < 5.00 | CC(=O)N1c2ccc(-c3ccc(S(C)(=O)=O)cc3)cc2N(C(=O)c2ccc(-c3ccccc3)o2)C[C@@H]1C [Example I-886]
6.30 to 7.30 | < 5.00 | CC(=O)N1c2ccc(-c3ccc(S(C)(=O)=O)cc3)cc2N(C(=O)c2ccc(C(F)(F)F)o2)C[C@@H]1C [Example I-887]
6.30 to 7.30 | 5.00 to 6.00 | CC(=O)N1c2ccc(-c3ccc(S(C)(=O)=O)cc3)cc2N(C(=O)c2ccc(CN)o2)C[C@@H]1C [Example I-890]
6.30 to 7.30 | < 5.00 | CC(=O)N1c2ccccc2N(Cc2ccccc2OCCN(C)C)C[C@@H]1C [Example I-906]
6.30 to 7.30 | < 5.00 | CC(=O)N1c2ccccc2N(Cc2cccc(OCCN(C)C)c2)C[C@@H]1C [Example I-908]
6.30 to 7.30 | < 5.00 | CC(=O)N1c2ccccc2N(Cc2ccccc2)C[C@@H]1C [Example I-909]
